Measurements as given in PMC9276671, “A first-in-human Phase I dose-escalation trial of the novel therapeutic peptide, ALM201, demonstrates a favourable safety profile in unselected patients with ovarian cancer and other advanced solid tumours” (British Journal of Cancer, 2022).
No end group written: not given here.

Assay: Plasma pharmacokinetics of ALM201 in Phase I patients (validated LC-MS/MS, Phoenix WinNonlin)
Settings: human, plasma, sc; for Tmax: median; for Tmax / AUC(0-t) / Cmax: plasma LC-MS/MS; for AUC(0-t): AUC0-t; for AUC(0-t) / Cmax: Gmean (CV); for level at 0.25 h / level at 0.75 h / level at 1.5 h / level at 2 h / level at 3 h / level at 4 h / level at 5 h / level at 6 h / level at 0.5 h / level at 1 h / level at 3.5 h: Plasma concentration, geometric mean (CV%), LC-MS/MS; for level at 0.25 h: day 1 cycle 1, 0.25 h after dosing; for level at 0.75 h: day 1 cycle 1, 0.75 h after dosing; for level at 3 h: day 1 cycle 1, 3 h after dosing; for level at 4 h: day 1 cycle 1, 4 h after dosing; for level at 6 h: day 1 cycle 1, 6 h after dosing
[1] = 100 mg, 100 mg SC, day 1 cycle 1, n = 4
[2] = 100 mg, 100 mg SC, day 3 cycle 1, n = 4
[3] = 100 mg, 100 mg SC, day 18 cycle 1, n = 2, CV not calculated
[4] = 100 mg, 100 mg SC, day 18 cycle 2, n = 1
[5] = 160 mg, 160 mg SC, day 1 cycle 1, n = 3
[6] = 160 mg, 160 mg SC, day 3 cycle 1, n = 3
[7] = 160 mg, 160 mg SC, day 18 cycle 1, n = 3
[8] = 160 mg, 160 mg SC, day 18 cycle 2, n = 1
[9] = 200 mg, 200 mg SC, day 1 cycle 1, n = 4
[10] = 200 mg, 200 mg SC, day 3 cycle 1, n = 4
[11] = 200 mg, 200 mg SC, day 18 cycle 1, n = 3
[12] = 200 mg, 200 mg SC, day 18 cycle 4, n = 2, CV not calculated

IRQQPRDPPTETLELEVSPDPAS [ALM201]
Tmax (80 mg, 80 mg SC, day 18 cycle 2, n = 1): 3.5 h | AUC(0-t) [1]: 6280 ng·h/mL | AUC(0-t) [2]: 8870 ng·h/mL | AUC(0-t) [3]: 8100 ng·h/mL | AUC(0-t) [4]: 5930 ng·h/mL | Cmax [1]: 1810 ng/mL | Cmax [2]: 2750 ng/mL | Cmax [3]: 2330 ng/mL | Cmax [4]: 1790 ng/mL | level at 0.25 h (100 mg, 100 mg SC, n = 4): 492 ng/mL | level at 0.75 h (100 mg, 100 mg SC, n = 4): 1220 ng/mL | level at 1.5 h (100 mg, 100 mg SC, day 1 cycle 1, 1.5 h after dosing, n = 4): 1810 ng/mL | level at 2 h (100 mg, 100 mg SC, day 1 cycle 1, 2 h after dosing, n = 4): 1590 ng/mL | level at 3 h (100 mg, 100 mg SC, n = 4): 1150 ng/mL | level at 4 h (100 mg, 100 mg SC, n = 4): 922 ng/mL | level at 5 h (100 mg, 100 mg SC, day 1 cycle 1, 5 h after dosing, n = 4, NQ value substituted with 100 ng/mL): 664 ng/mL | level at 6 h (100 mg, 100 mg SC, n = 4, NQ value substituted with 100 ng/mL): 560 ng/mL | level at 0.5 h (100 mg, 100 mg SC, day 3 cycle 1, 0.5 h after dosing, n = 4): 1730 ng/mL | level at 1 h (100 mg, 100 mg SC, day 3 cycle 1, 1 h after dosing, n = 4): 2100 ng/mL | level at 1.5 h (100 mg, 100 mg SC, day 3 cycle 1, 1.5 h after dosing, n = 4): 2530 ng/mL | level at 2 h (100 mg, 100 mg SC, day 3 cycle 1, 2 h after dosing, n = 4): 2400 ng/mL | level at 3.5 h (100 mg, 100 mg SC, day 3 cycle 1, 3.5 h after dosing, n = 4): 1690 ng/mL | level at 5 h (100 mg, 100 mg SC, day 3 cycle 1, 5 h after dosing, n = 4): 928 ng/mL | level at 0.5 h (100 mg, 100 mg SC, day 18 cycle 1, 0.5 h after dosing, n = 2): 1890 ng/mL | level at 1 h (100 mg, 100 mg SC, day 18 cycle 1, 1 h after dosing, n = 2): 1840 ng/mL | level at 1.5 h (100 mg, 100 mg SC, day 18 cycle 1, 1.5 h after dosing, n = 2): 2210 ng/mL | level at 2 h (100 mg, 100 mg SC, day 18 cycle 1, 2 h after dosing, n = 2): 2130 ng/mL | level at 3.5 h (100 mg, 100 mg SC, day 18 cycle 1, 3.5 h after dosing, n = 2): 1490 ng/mL | level at 5 h (100 mg, 100 mg SC, day 18 cycle 1, 5 h after dosing, n = 2): 961 ng/mL | level at 0.5 h (100 mg, 100 mg SC, day 18 cycle 2, 0.5 h after dosing, n = 1): 1060 ng/mL | level at 1 h (100 mg, 100 mg SC, day 18 cycle 2, 1 h after dosing, n = 1): 1790 ng/mL | level at 1.5 h (100 mg, 100 mg SC, day 18 cycle 2, 1.5 h after dosing, n = 1): 1710 ng/mL | level at 2 h (100 mg, 100 mg SC, day 18 cycle 2, 2 h after dosing, n = 1): 1570 ng/mL | level at 3.5 h (100 mg, 100 mg SC, day 18 cycle 2, 3.5 h after dosing, n = 1): 1180 ng/mL | Tmax [1]: 1.5 h | Tmax [2]: 1.61 h | Tmax (100 mg, 100 mg SC, day 18 cycle 1, n = 2): 1.9 h | Tmax [4]: 1.02 h | AUC(0-t) [5]: 6510 ng·h/mL | AUC(0-t) [6]: 5100 ng·h/mL | AUC(0-t) [7]: 4930 ng·h/mL | AUC(0-t) [8]: 5710 ng·h/mL | Cmax [5]: 1990 ng/mL | Cmax [6]: 1490 ng/mL | Cmax [7]: 1350 ng/mL | Cmax [8]: 1870 ng/mL | level at 0.25 h (160 mg, 160 mg SC, n = 3): 833 ng/mL | level at 0.75 h (160 mg, 160 mg SC, n = 3): 1570 ng/mL | level at 1.5 h (160 mg, 160 mg SC, day 1 cycle 1, 1.5 h after dosing, n = 3): 1670 ng/mL | level at 2 h (160 mg, 160 mg SC, day 1 cycle 1, 2 h after dosing, n = 3): 1480 ng/mL | level at 3 h (160 mg, 160 mg SC, n = 3): 1280 ng/mL | level at 4 h (160 mg, 160 mg SC, n = 3): 866 ng/mL | level at 5 h (160 mg, 160 mg SC, day 1 cycle 1, 5 h after dosing, n = 3): 510 ng/mL | level at 6 h (160 mg, 160 mg SC, n = 3): 283 ng/mL | level at 0.5 h (160 mg, 160 mg SC, day 3 cycle 1, 0.5 h after dosing, n = 3): 956 ng/mL | level at 1 h (160 mg, 160 mg SC, day 3 cycle 1, 1 h after dosing, n = 3): 1270 ng/mL | level at 1.5 h (160 mg, 160 mg SC, day 3 cycle 1, 1.5 h after dosing, n = 3): 1460 ng/mL | level at 2 h (160 mg, 160 mg SC, day 3 cycle 1, 2 h after dosing, n = 3): 1350 ng/mL | level at 3.5 h (160 mg, 160 mg SC, day 3 cycle 1, 3.5 h after dosing, n = 3): 926 ng/mL | level at 5 h (160 mg, 160 mg SC, day 3 cycle 1, 5 h after dosing, n = 3): 613 ng/mL | level at 0.5 h (160 mg, 160 mg SC, day 18 cycle 1, 0.5 h after dosing, n = 3): 940 ng/mL | level at 1 h (160 mg, 160 mg SC, day 18 cycle 1, 1 h after dosing, n = 3): 1150 ng/mL | level at 1.5 h (160 mg, 160 mg SC, day 18 cycle 1, 1.5 h after dosing, n = 3): 1280 ng/mL | level at 2 h (160 mg, 160 mg SC, day 18 cycle 1, 2 h after dosing, n = 3): 1200 ng/mL | level at 3.5 h (160 mg, 160 mg SC, day 18 cycle 1, 3.5 h after dosing, n = 3): 995 ng/mL | level at 5 h (160 mg, 160 mg SC, day 18 cycle 1, 5 h after dosing, n = 3): 577 ng/mL | level at 0.5 h (160 mg, 160 mg SC, day 18 cycle 2, 0.5 h after dosing, n = 1): 1380 ng/mL | level at 1 h (160 mg, 160 mg SC, day 18 cycle 2, 1 h after dosing, n = 1): 1380 ng/mL | level at 1.5 h (160 mg, 160 mg SC, day 18 cycle 2, 1.5 h after dosing, n = 1): 1650 ng/mL | level at 2 h (160 mg, 160 mg SC, day 18 cycle 2, 2 h after dosing, n = 1): 1870 ng/mL | level at 3.5 h (160 mg, 160 mg SC, day 18 cycle 2, 3.5 h after dosing, n = 1): 870 ng/mL | Tmax [5]: 1.52 h | Tmax [8]: 2 h | AUC(0-t) [9]: 5860 ng·h/mL | AUC(0-t) [10]: 6630 ng·h/mL | AUC(0-t) [11]: 5570 ng·h/mL | AUC(0-t) [12]: 6110 ng·h/mL | Cmax [9]: 1490 ng/mL | Cmax [10]: 1620 ng/mL | Cmax [11]: 1670 ng/mL | Cmax (200 mg, 200 mg SC, day 18 cycle 2, n = 2, CV not calculated): 1890 ng/mL | Cmax [12]: 1680 ng/mL | level at 0.25 h (200 mg, 200 mg SC, n = 4): 479 ng/mL | level at 0.75 h (200 mg, 200 mg SC, n = 4): 1040 ng/mL | level at 1.5 h (200 mg, 200 mg SC, day 1 cycle 1, 1.5 h after dosing, n = 4): 1240 ng/mL | level at 2 h (200 mg, 200 mg SC, day 1 cycle 1, 2 h after dosing, n = 4): 1370 ng/mL | level at 3 h (200 mg, 200 mg SC, n = 4): 1360 ng/mL | level at 4 h (200 mg, 200 mg SC, n = 4): 1050 ng/mL | level at 5 h (200 mg, 200 mg SC, day 1 cycle 1, 5 h after dosing, n = 4): 620 ng/mL
